In the assay the target is T1, glucocerebrosidase (Gcase) (Homo sapiens, UniProt P04062).
T1 construct: micellar solution containing 10 nM GCase and 100 nM saposin C
T1 sequence (P04062 40-536): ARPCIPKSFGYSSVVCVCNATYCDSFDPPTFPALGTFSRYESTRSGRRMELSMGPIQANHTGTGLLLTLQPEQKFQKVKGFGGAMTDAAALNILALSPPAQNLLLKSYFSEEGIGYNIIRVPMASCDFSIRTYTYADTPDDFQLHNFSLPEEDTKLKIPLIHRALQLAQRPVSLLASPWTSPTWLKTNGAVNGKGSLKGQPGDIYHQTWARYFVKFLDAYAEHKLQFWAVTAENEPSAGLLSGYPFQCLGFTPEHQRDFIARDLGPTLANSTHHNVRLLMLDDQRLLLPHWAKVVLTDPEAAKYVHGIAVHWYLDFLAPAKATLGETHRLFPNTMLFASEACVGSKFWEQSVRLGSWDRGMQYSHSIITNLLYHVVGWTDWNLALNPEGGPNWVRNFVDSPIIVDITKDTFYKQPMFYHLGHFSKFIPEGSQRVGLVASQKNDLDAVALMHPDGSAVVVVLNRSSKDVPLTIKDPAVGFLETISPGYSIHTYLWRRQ
Put plainly: Glucocerebrosidase (Gcase) activation assay, 4-methylumbelliferyl-beta-D-glucopyranoside substrate, with saposin C. The format is biochemical. The settings on record: 0.25 h; for activation at 0.1 µM: read-out: Percent Gcase Activation 0.1 μM Test Compound; for activation at 1 µM: read-out: Percent Gcase Activation 1 μM Test Compound. On the procedure:
The ability of exemplary compounds to activate glucocerebrosidase (Gcase) was measured.
A 484 μL aliquot of a 1.0 mg/mL solution of phosphatidylserine (PS) (Sigma P7769) in chloroform was evaporated under a stream of nitrogen for 1 hour. The lipid film was dissolved over 4 minutes of vigorous vortexing in 40 mL of 176 mM K2HPO4/50 mM citric acid (pH 4.7) containing 7.5 μL of triton X-100, resulting in a mixed micellar preparation with a composition of 0.32 mM triton and 0.37 mol % PS. 4-Methylumbelliferyl-beta-D-glucopyranoside (ACROS-337025000) was dissolved in the micellar solution to a final concentration of 2 mM for use as the reaction substrate.
Test compounds were diluted to the desired concentrations with dimethylsulfoxide (DMSO) from 10 mM stocks, and 0.41 μL of the DMSO compound mixture was added to 100 μL of micellar solution containing 10 nM GCase and 100 nM saposin C (Enzo ALX-201-262-C050). Pre-incubation was allowed to occur for 30 minutes at room temperature, after which the reaction was initiated by combining 25 μL of substrate solution with 25 μL of compound/GCase/saposin mixture. The reaction proceeded for 15 minutes at room temperature and was stopped by adding 150 μL of 1M glycine, pH 12.5. The endpoint of the reaction was monitored by measuring fluorescence intensity (excitation: 365 nm; emission: 440 nm) on a SpectraMax i3 instrument (Molecular Devices). Test compounds were screened at 1.0 and 0.1 μM final concentration, and subsequent 8-point dose response curves were obtained using 3-fold dilutions from a maximum final concentration of 5 μM.
The symbol “+” indicates less than 5% Gcase activation; the symbol “++” indicates Gcase activation in the range of 5% up to 20%; and the symbol “+++” indicates Gcase activation greater than 20%.

On to `Cc1cc(-c2ccc3ocnc3c2)nn2c(C(=O)N[C@H](C3CC3)C(F)(F)F)cnc12`, for which the activation at 0.1 µM is over 20% and the activation at 1 µM is over 20%.

In the case of `Cc1cc(-c2ccc3ocnc3c2)nn2c(C(=O)N[C@@H](C3CC3)C(F)(F)F)cnc12`, the activation at 0.1 µM is over 20% and the activation at 1 µM is over 20%.

As for `Cc1cc(-c2ccc(F)o2)nn2c(C(=O)NC(C3CC3)C(F)(F)F)cnc12` (centres unmarked), the activation at 0.1 µM is over 20% and the activation at 1 µM was over 20%.

As to `Cc1cc(C#N)c(-c2cc(C)c3ncc(C(=O)N[C@H](C)C(F)(F)F)n3n2)o1`, the activation at 0.1 µM was 5 to 20% and the activation at 1 µM is over 20%.

Take `Cc1cc(C#N)c(-c2cc(C)c3ncc(C(=O)N[C@@H](C)C(F)(F)F)n3n2)o1`: the activation at 0.1 µM is over 20% and the activation at 1 µM is over 20%.

`Cc1cc(-c2ccc3c(c2)ncn3C)nn2c(C(=O)N[C@H](C3CC3)C(F)(F)F)cnc12`: the activation at 0.1 µM was 5 to 20% and the activation at 1 µM was over 20%.

For `Cc1cc(-c2ccc3c(c2)ncn3C)nn2c(C(=O)N[C@@H](C3CC3)C(F)(F)F)cnc12`, the activation at 0.1 µM was 5 to 20% and the activation at 1 µM is over 20%.

For the compound `Cc1cncc(-c2cc(C)c3ncc(C(=O)N[C@H](C4CC4)C(F)(F)F)n3n2)c1`, the activation at 0.1 µM is 5 to 20% and the activation at 1 µM was over 20%.

In the case of `Cc1cncc(-c2cc(C)c3ncc(C(=O)N[C@@H](C4CC4)C(F)(F)F)n3n2)c1`, the activation at 0.1 µM was under 5% and the activation at 1 µM was over 20%.

As to `COc1cncc(-c2cc(C)c3ncc(C(=O)N[C@H](C4CC4)C(F)(F)F)n3n2)c1`, the activation at 0.1 µM lay within 5 to 20% and the activation at 1 µM was over 20%.

As to `COc1cncc(-c2cc(C)c3ncc(C(=O)N[C@@H](C4CC4)C(F)(F)F)n3n2)c1`, the activation at 0.1 µM was 5 to 20% and the activation at 1 µM was over 20%.

As for `C#CC(NC(=O)c1ncc2c(C)cc(-c3cccc(F)c3)nn12)C(F)(F)F` (centres unmarked) [2-(3-Fluorophenyl)-4-methyl-N-(1,1,1-trifluorobut-3-yn-2-yl)imidazo[1,5-b]pyridazine-7-carboxamide], the activation at 0.1 µM was over 20% and the activation at 1 µM was over 20%.

With `Cc1cc(C)c2occ(C(=O)NC3CCCc4ccccc43)c2n1` (centres unmarked) [5,7-Dimethyl-N-(1,2,3,4-tetrahydronaphthalen-1-yl)furo[3,2-b]pyridine-3-carboxamide], the activation at 0.1 µM was over 20% and the activation at 1 µM was over 20%.

As to `Cc1cc(C)c2snc(C(=O)NC3CCCc4ccccc43)c2n1` (centres unmarked) [5,7-Dimethyl-N-(1,2,3,4-tetrahydronaphthalen-1-yl)isothiazolo[4,5-b]pyridine-3-carboxamide], the activation at 0.1 µM was over 20% and the activation at 1 µM is over 20%.

Regarding `Cc1cc(C)c2onc(C(=O)NC3CCCc4ccccc43)c2n1` (centres unmarked) [5,7-Dimethyl-N-(1,2,3,4-tetrahydronaphthalen-1-yl)isoxazolo[4,5-b]pyridine-3-carboxamide], the activation at 0.1 µM fell in the range of 5 to 20% and the activation at 1 µM was over 20%.

As to `CCC(NC(=O)c1coc2c(C)cc(C)nc12)c1ccccc1` (centres unmarked) [5,7-Dimethyl-N-(1-phenylpropyl)furo[3,2-b]pyridine-3-carboxamide], the activation at 0.1 µM is over 20% and the activation at 1 µM was over 20%.

In the case of `CCC(NC(=O)c1nsc2c(C)cc(C)nc12)c1ccccc1` (centres unmarked) [5,7-Dimethyl-N-(1-phenylpropyl)isothiazolo[4,5-b]pyridine-3-carboxamide], the activation at 0.1 µM was 5 to 20% and the activation at 1 µM is over 20%.

Consider `CCC(NC(=O)c1noc2c(C)cc(C)nc12)c1ccccc1` (centres unmarked) [5,7-Dimethyl-N-(1-phenylpropyl)isoxazolo[4,5-b]pyridine-3-carboxamide], for which the activation at 0.1 µM lay in the range of 5 to 20% and the activation at 1 µM is over 20%.

Regarding `CCCCCO[C@H]1CC[C@H](NC(=O)c2coc3c(C)cc(C)nc23)CC1` [5,7-Dimethyl-N-((1R,4R)-4-(pentyloxy)cyclohexyl)furo[3,2-b]pyridine-3-carboxamide], the activation at 0.1 µM lay within 5 to 20% and the activation at 1 µM was over 20%.

`CCCCCO[C@H]1CC[C@H](NC(=O)c2nsc3c(C)cc(C)nc23)CC1` [5,7-Dimethyl-N-((1R,4R)-4-(pentyloxy)cyclohexyl)isothiazolo[4,5-b]pyridine-3-carboxamide]: the activation at 0.1 µM was over 20% and the activation at 1 µM is over 20%.

Regarding `CCCCCO[C@H]1CC[C@H](NC(=O)c2noc3c(C)cc(C)nc23)CC1` [5,7-Dimethyl-N-((1R,4R)-4-(pentyloxy)cyclohexyl)isoxazolo[4,5-b]pyridine-3-carboxamide], the activation at 0.1 µM fell in the range of 5 to 20% and the activation at 1 µM is over 20%.

As to `Cc1ccc(-c2cc(C)c3ncc(C(=O)N[C@H](C4CC4)C(F)(F)F)n3n2)cn1` [(R)-6-(6-Methylpyridin-3-yl)-N-(1-cyclopropyl-2,2,2-trifluoroethyl)-8-methylimidazo[1,2-b]pyridazine-3-carboxamide], the activation at 0.1 µM is 5 to 20% and the activation at 1 µM is over 20%.

For `Cc1cc(-c2cccc(F)c2)nn2c(C(=O)N[C@H](C3CC3)C(F)(F)F)ncc12` [(R)—N-(1-Cyclopropyl-2,2,2-trifluoroethyl)-2-(3-fluorophenyl)-4-methylimidazo[1,5-b]pyridazine-7-carboxamide], the activation at 0.1 µM was over 20% and the activation at 1 µM is over 20%.

Take `Cc1cc(-c2ccc3ncn(C)c3c2)nn2c(C(=O)N[C@H](C3CC3)C(F)(F)F)cnc12` [(R)—N-(1-Cyclopropyl-2,2,2-trifluoroethyl)-8-methyl-6-(1-methyl-1H-benzo[d]imidazol-6-yl)imidazo[1,2-b]pyridazine-3-carboxamide]: the activation at 0.1 µM fell in the range of 5 to 20% and the activation at 1 µM is over 20%.

Consider `Cc1cc(-c2ccc(F)cc2C#N)nn2c(C(=O)N[C@@H](C3CC3)C(F)(F)F)ncc12` [(S)-2-(2-Cyano-4-fluorophenyl)-N-(1-cyclopropyl-2,2,2-trifluoroethyl)-4-methylimidazo[1,5-b]pyridazine-7-carboxamide], for which the activation at 0.1 µM lay within 5 to 20% and the activation at 1 µM was over 20%.

Take `Cc1cc(-c2ccc(F)cc2C#N)nn2c(C(=O)N[C@@H](C)C3CC3)ncc12` [(S)-2-(2-Cyano-4-fluorophenyl)-N-(1-cyclopropylethyl)-4-methylimidazo[1,5-b]pyridazine-7-carboxamide]: the activation at 0.1 µM was 5 to 20% and the activation at 1 µM was over 20%.

As to `Cc1cc(-c2cncc(Cl)c2)nn2c(C(=O)N[C@@H](C3CC3)C(F)(F)F)ncc12` [(S)-2-(5-Chloropyridin-3-yl)-N-(1-cyclopropyl-2,2,2-trifluoroethyl)-4-methylimidazo[1,5-b]pyridazine-7-carboxamide], the activation at 0.1 µM was in the range of 5 to 20% and the activation at 1 µM was over 20%.

Take `Cc1cc(-c2cccc(F)c2C#N)nn2c(C(=O)N[C@@H](C)C(F)(F)F)cnc12` [(S)-6-(2-Cyano-3-fluorophenyl)-8-methyl-N-(1,1,1-trifluoropropan-2-yl)imidazo[1,2-b]pyridazine-3-carboxamide]: the activation at 0.1 µM is 5 to 20% and the activation at 1 µM was over 20%.

For the compound `Cc1cc(-c2cccc(F)c2C#N)nn2c(C(=O)N[C@@H](C)C3CC3)cnc12` [(S)-6-(2-Cyano-3-fluorophenyl)-N-(1-cyclopropylethyl)-8-methylimidazo[1,2-b]pyridazine-3-carboxamide], the activation at 0.1 µM was over 20% and the activation at 1 µM is over 20%.

As to `Cc1cc(-c2cc(F)ccc2C#N)nn2c(C(=O)N[C@@H](C)C(F)(F)F)cnc12` [(S)-6-(2-Cyano-5-fluorophenyl)-8-methyl-N-(1,1,1-trifluoropropan-2-yl)imidazo[1,2-b]pyridazine-3-carboxamide], the activation at 0.1 µM is 5 to 20% and the activation at 1 µM is over 20%.

In the case of `Cc1cc(-c2cc(F)ccc2C#N)nn2c(C(=O)N[C@@H](C)C3CC3)cnc12` [(S)-6-(2-Cyano-5-fluorophenyl)-N-(1-cyclopropylethyl)-8-methylimidazo[1,2-b]pyridazine-3-carboxamide], the activation at 0.1 µM lay within 5 to 20% and the activation at 1 µM was over 20%.

The values are drawn from patent US11168087B2, “Substituted imidazo[1,2-b]pyridazines, substituted imidazo[1,5-b]pyridazines, related compounds, and their use in the treatment of medical disorders” (BIAL—R&D Investments, S.A., priority 2016, dated 2021).
